Laboratory results from patent publication US6849664B2, “Process for disposing biocide-containing cooling water” (priority 2001, dated 2005).
Read-outs that look alike come from different tables or passages of the source.

How the values were obtained:
bacterial inoculum [1] = conditions: for neutralizing 10 ppm of glutaraldehyde: two moles of nitrogen-containing compound to glutaraldehyde
Method: A series of different nitrogen-containing compounds were evaluated as materials to neutralize glutaraldehyde. For these experiments, 10:1 ratio of minimal media to n-C16 were prepared, mixed with 10 ppm of glutaraldehyde (G) and evaluated in 250 ml flasks.
Two moles of each of the nitrogen-containing compound to glutaraldehyde were added to the flasks. Then 10 μl of the bacterial inoculum was added to each flask.
Control samples were also run with the nitrogen-containing compound and without the glutaraldehyde. These control samples permitted an assessment of the toxicity of the nitrogen-containing compound.

bacterial inoculum [2] = assay: Neutralization of biocides with MEA, microbial growth in minimal media / Fischer-Tropsch diesel fuel; type: cell-based
Method: Growth Media: A standard minimal media containing only inorganic nutrients required for bacterial growth was used. The medium used to supply inorganic micronutrients to the growing culture of alkane degrading organisms consists of 0.1 g/L MgSO4.7H2O, 0.5 g/L NaNO3, 0.02 mM FeSO4 and 0.63 g/L K2HPO4 and 0.19 g/L KH2PO4 to achieve a pH of 7 to 7.3.
Test Conditions: 90 ml of media and 10 ml of the product to be tested (n-C16) were added to 250 ml flasks. […] After inoculation, the flasks were placed on a shaker-table (135 rpm) at room temperature in contact with air and observed daily.
In all experiments, a 10:1 ratio of minimal media to Fischer-Tropsch diesel fuel were prepared and evaluated in 250 ml flasks.

[3] = tested on: Larval Sheepshead Minnow (Cyprinodon variegatus); conditions: in vivo, 96 h
Method: […]. EPA/600/4-90/027F Washington, D.C.) conducted at Pacific Eco-Risk Laboratories, Martinez, Calif.
LOEC is the Lowest Observable Effect Concentration and is defined as the minimum concentration where mortality is observed for the test species. […] LC-50, the concentration that will cause mortality of 50% of the organisms tested within 96 h, is a calculated value based on all observations.

bacteria = assay: Neutralization of glutaraldehyde with H2O2 and NH4Cl, microbial growth test; type: cell-based
Method: […]. In this experiment, minimal medium, containing 1, 10 or 100 ppm of glutaraldehyde, were mixed with a five times molar excess of H2O2 or NH4Cl. Hydrocarbonaceous product and bacteria were then added to the mixture. While microbial growth was observed after 5 days in control samples containing no glutaraldehyde, no growth was observed after 14 days in samples containing glutaraldehyde and H2O2 or NH4Cl. […].

[4] = 10 ppm glutaraldehyde with two moles of the nitrogen-containing compound to glutaraldehyde, time 0 days
[5] = 10 ppm glutaraldehyde with two moles of the nitrogen-containing compound to glutaraldehyde, time 1 days
[6] = 10 ppm glutaraldehyde with two moles of the nitrogen-containing compound to glutaraldehyde, time 2 days
[7] = 10 ppm glutaraldehyde with two moles of the nitrogen-containing compound to glutaraldehyde, time 6 days
[8] = 10 ppm glutaraldehyde with two moles of the nitrogen-containing compound to glutaraldehyde, time 7 days
[9] = 10 ppm glutaraldehyde with two moles of the nitrogen-containing compound to glutaraldehyde, time 9 days
[10] = 10 ppm glutaraldehyde with two moles of the nitrogen-containing compound to glutaraldehyde, time 13 days
[11] = 10 ppm glutaraldehyde with two moles of the nitrogen-containing compound to glutaraldehyde, time 20 days
[12] = control: nitrogen-containing compound without the glutaraldehyde, time 0 days
[13] = control: nitrogen-containing compound without the glutaraldehyde, time 1 days
[14] = control: nitrogen-containing compound without the glutaraldehyde, time 2 days
[15] = control: nitrogen-containing compound without the glutaraldehyde, time 6 days
[16] = control: nitrogen-containing compound without the glutaraldehyde, time 7 days
[17] = control: nitrogen-containing compound without the glutaraldehyde, time 9 days
[18] = control: nitrogen-containing compound without the glutaraldehyde, time 13 days
[19] = control: nitrogen-containing compound without the glutaraldehyde, time 20 days

SMILES: OCCNCCO [DEA, Diethanolamine]
- toxicity of the nitrogen-containing compound to microbial growth (bacterial inoculum [1]): not excessively toxic
- Growth / No Growth (bacterial inoculum [1]; [4]): −
- Growth / No Growth (bacterial inoculum [1]; [5]): +
- Growth / No Growth (bacterial inoculum [1]; [6]): +
- Growth / No Growth (bacterial inoculum [1]; [7]): +
- Growth / No Growth (bacterial inoculum [1]; [8]): +
- Growth / No Growth (bacterial inoculum [1]; [9]): +
- Growth / No Growth (bacterial inoculum [1]; [10]): +
- Growth / No Growth (bacterial inoculum [1]; [11]): +
- Growth / No Growth (bacterial inoculum [1]; [12]): −
- Growth / No Growth (bacterial inoculum [1]; [13]): −
- Growth / No Growth (bacterial inoculum [1]; [14]): −
- Growth / No Growth (bacterial inoculum [1]; [15]): +
- Growth / No Growth (bacterial inoculum [1]; [16]): +
- Growth / No Growth (bacterial inoculum [1]; [17]): +
- Growth / No Growth (bacterial inoculum [1]; [18]): +
- Growth / No Growth (bacterial inoculum [1]; [19]): −
- neutralizing 10 ppm of glutaraldehyde (bacterial inoculum [1]): effective

SMILES: O=CCCCC=O [Glutaraldehyde, glutaraldehyde]
- Growth / No Growth (bacterial inoculum [2]; 1 ppm G, time 0 days): −
- Growth / No Growth (bacterial inoculum [2]; 1 ppm G, time 1 days): −
- Growth / No Growth (bacterial inoculum [2]; 1 ppm G, time 2 days): −
- Growth / No Growth (bacterial inoculum [2]; 1 ppm G, time 3 days): −
- Growth / No Growth (bacterial inoculum [2]; 1 ppm G, time 7 days): −
- Growth / No Growth (bacterial inoculum [2]; 1 ppm G, time 9 days): +
- Growth / No Growth (bacterial inoculum [2]; 1 ppm G, time 14 days): +
- Growth / No Growth (bacterial inoculum [2]; 10 ppm G, time 0 days): −
- Growth / No Growth (bacterial inoculum [2]; 10 ppm G, time 1 days): −
- Growth / No Growth (bacterial inoculum [2]; 10 ppm G, time 2 days): −
- Growth / No Growth (bacterial inoculum [2]; 10 ppm G, time 3 days): −
- Growth / No Growth (bacterial inoculum [2]; 10 ppm G, time 7 days): −
- Growth / No Growth (bacterial inoculum [2]; 10 ppm G, time 9 days): −
- Growth / No Growth (bacterial inoculum [2]; 10 ppm G, time 14 days): −
- Growth / No Growth (bacterial inoculum [2]; 100 ppm G, time 0 days): −
- Growth / No Growth (bacterial inoculum [2]; 100 ppm G, time 1 days): −
- Growth / No Growth (bacterial inoculum [2]; 100 ppm G, time 2 days): −
- Growth / No Growth (bacterial inoculum [2]; 100 ppm G, time 3 days): −
- Growth / No Growth (bacterial inoculum [2]; 100 ppm G, time 7 days): −
- Growth / No Growth (bacterial inoculum [2]; 100 ppm G, time 9 days): −
- Growth / No Growth (bacterial inoculum [2]; 100 ppm G, time 14 days): −
- LOEC [3]: 25 mg/L
- NOEC [3]: 13 mg/L

SMILES: OO [H2O2]
- microbial growth (bacteria): no growth

SMILES: NCCO [MEA, monoethanolamine]
- toxicity of the nitrogen-containing compound to microbial growth (bacterial inoculum [1]): not excessively toxic
- Growth / No Growth (bacterial inoculum [1]; [4]): −
- Growth / No Growth (bacterial inoculum [1]; [5]): −
- Growth / No Growth (bacterial inoculum [1]; [6]): −
- Growth / No Growth (bacterial inoculum [1]; [7]): +
- Growth / No Growth (bacterial inoculum [1]; [8]): +
- Growth / No Growth (bacterial inoculum [1]; [9]): +
- Growth / No Growth (bacterial inoculum [1]; [10]): +
- Growth / No Growth (bacterial inoculum [1]; [11]): +
- Growth / No Growth (bacterial inoculum [1]; [12]): −
- Growth / No Growth (bacterial inoculum [1]; [13]): −
- Growth / No Growth (bacterial inoculum [1]; [14]): −
- Growth / No Growth (bacterial inoculum [1]; [15]): −
- Growth / No Growth (bacterial inoculum [1]; [16]): +
- Growth / No Growth (bacterial inoculum [1]; [17]): +
- Growth / No Growth (bacterial inoculum [1]; [18]): +
- Growth / No Growth (bacterial inoculum [1]; [19]): +
- neutralizing 10 ppm of glutaraldehyde (bacterial inoculum [1]): effective
- LOEC [3]: 1700 mg/L
- NOEC [3]: 1000 mg/L

SMILES: Cl.N [NH4Cl]
- microbial growth (bacteria): no growth

SMILES: Nc1ccccc1 [aniline, Aniline]
- toxicity of the nitrogen-containing compound to microbial growth (bacterial inoculum [1]): excessively toxic
- Growth / No Growth (bacterial inoculum [1]; [4]): −
- Growth / No Growth (bacterial inoculum [1]; [5]): −
- Growth / No Growth (bacterial inoculum [1]; [6]): −
- Growth / No Growth (bacterial inoculum [1]; [7]): −
- Growth / No Growth (bacterial inoculum [1]; [8]): −
- Growth / No Growth (bacterial inoculum [1]; [9]): −
- Growth / No Growth (bacterial inoculum [1]; [10]): −
- Growth / No Growth (bacterial inoculum [1]; [11]): −
- Growth / No Growth (bacterial inoculum [1]; [12]): −
- Growth / No Growth (bacterial inoculum [1]; [13]): −
- Growth / No Growth (bacterial inoculum [1]; [14]): −
- Growth / No Growth (bacterial inoculum [1]; [15]): −
- Growth / No Growth (bacterial inoculum [1]; [16]): −
- Growth / No Growth (bacterial inoculum [1]; [17]): −
- Growth / No Growth (bacterial inoculum [1]; [18]): −
- Growth / No Growth (bacterial inoculum [1]; [19]): −

SMILES: CCNCC [diethylamine, Diethylamine]
- toxicity of the nitrogen-containing compound to microbial growth (bacterial inoculum [1]): not excessively toxic
- Growth / No Growth (bacterial inoculum [1]; [4]): −
- Growth / No Growth (bacterial inoculum [1]; [5]): −
- Growth / No Growth (bacterial inoculum [1]; [6]): −
- Growth / No Growth (bacterial inoculum [1]; [7]): +
- Growth / No Growth (bacterial inoculum [1]; [8]): +
- Growth / No Growth (bacterial inoculum [1]; [9]): +
- Growth / No Growth (bacterial inoculum [1]; [10]): +
- Growth / No Growth (bacterial inoculum [1]; [11]): +
- Growth / No Growth (bacterial inoculum [1]; [12]): −
- Growth / No Growth (bacterial inoculum [1]; [13]): −
- Growth / No Growth (bacterial inoculum [1]; [14]): −
- Growth / No Growth (bacterial inoculum [1]; [15]): +
- Growth / No Growth (bacterial inoculum [1]; [16]): +
- Growth / No Growth (bacterial inoculum [1]; [17]): +
- Growth / No Growth (bacterial inoculum [1]; [18]): +
- Growth / No Growth (bacterial inoculum [1]; [19]): +
- neutralizing 10 ppm of glutaraldehyde (bacterial inoculum [1]): effective
